Measurements from patent US11945784B2, “IRE1 small molecule inhibitors” (Cornell University, priority 2018, dated 2024).
pEC50, pIC50: −log10 of the molar value.

Legend:
IRE1α [1] = target: T1, IRE1α (Homo sapiens (Human), UniProt O75460); assay: In vitro FRET assay; assay type: biochemical; details: XBP1 RNA probe
Description: In vitro FRET assay was performed to evaluate the ability of select compounds to inhibit IRE1, the results of which are summarized in Table 3. To perform the in vitro FRET assay, 1× complete assay buffer (CAB; […], 50 mM sodium citrate pH 7.15, 1 mM magnesium acetate, 0.02% tween 20) was used to dilute SignalChem IRE1α protein to a final concentration of 2 nM. Selected compounds were serially diluted with DMSO in a non-binding black 384-well plate for a total of 15 ul in each well. 2 ul of the serially diluted compound or DMSO control were then added to new wells containing 98 ul of 1×CAB, for a total volume of 100 ul, 10 ul of which were then transferred to wells of a new plate. 5 ul of the diluted IRE1α was then added to each well. 5 ul of a […] XBP1 RNA probe was then added to each well. Fluorescence was then read over 30 minutes in kinetic mode (485/515 nm).
Two RNA probes were used, XBP1 wildtype (SEQ ID NO: 2) which is able to be spliced by active IRE1α or XBP1 mutant (SEQ ID NO: 3) which is unable to be spliced. Each probe contained a 5′ 6-FAM modification and a 3′ IOWA Black FQ modification.
A second FRET assay was performed to assess ATP-mediated inhibition. In this case, compounds and IRE1α were prepared and combined as discussed above, with the addition of ATP up to 1 mM final concentration. This mixture was incubated at room temperature for 60 minutes and then 5 ul of 400 nM XBP1 wildtype or mutant RNA probe was added. Plates were then read over 30 minutes in kinetic mode (485/515 nm) and rate of fluorescence increase calculated for different compound dilutions to determine IC50 (Table 3).

IRE1α [2] = target: T1, IRE1α; assay: In vitro luciferase assay (IRE1α Endoribonuclease Nanoluciferase Assay); assay type: cell-based; details: 293T cells, XBP1 luciferase reporter
Description: Compounds disclosed herein were assessed for disruption of IRE-1 signaling using a IRE1α Endoribonuclease Nanoluciferase Assay. Briefly, 2.5×10^6 293T cells were seeded in a 10 cm^2 tissue culture plate. About 24 hours later, the cells were transfected with Effectene. In a 15 mL Tube, the following was added: 2 μg XBP1 luciferase reporter plasmid (PGK-Luc2-P2A-XBP1u-Nanoluciferase-PEST); 300 μl EC buffer; and 16 μl Enhancer, followed by incubation at room temp for 5 minutes. Next, 60 μl Effectene (Qiagen 301427) was added, followed by incubation at room temperature for 10 minutes. 2.6 mL cDMEM media was added. Old media was aspirated from the cells, followed by addition of 7 mL fresh media. Full transfection mixture was added dropwise to cells. Cells were incubated for 6 hours, followed by trypsinization, centrifugation and resuspension in 11 mL media. 100 uL of cells were plated per a well in a 96 well plate. A day later, ER stressors of choice+/−inhibitors were added. To harvest, media was aspirated from cells completely, then 50 uL 1× passive lysis buffer (Promega: E1941) was added per well and put on shaker (300 rpm) for 30 minutes at room temperature. Cells were centrifuged, and 15 uL sample per well was added to a new, opaque white 384 well plate (Corning 3570). 15 uL OneGlo (nanoluciferase kit, Promega N1630) was added. Plates were spun down, placed on shaker (300 rpm) for 10 minutes. Plates were read on luminometer, 1000 ms integration time per well. 15 uL Stop and Glo (nanoluciferase kit) was added. Plates were spun down, placed on shaker (300 rpm) for 10 minutes. Plates were read on luminometer, 1000 ms second integration time per well. Recordings are provided below in Table 4

T1 sequence (O75460 19-977): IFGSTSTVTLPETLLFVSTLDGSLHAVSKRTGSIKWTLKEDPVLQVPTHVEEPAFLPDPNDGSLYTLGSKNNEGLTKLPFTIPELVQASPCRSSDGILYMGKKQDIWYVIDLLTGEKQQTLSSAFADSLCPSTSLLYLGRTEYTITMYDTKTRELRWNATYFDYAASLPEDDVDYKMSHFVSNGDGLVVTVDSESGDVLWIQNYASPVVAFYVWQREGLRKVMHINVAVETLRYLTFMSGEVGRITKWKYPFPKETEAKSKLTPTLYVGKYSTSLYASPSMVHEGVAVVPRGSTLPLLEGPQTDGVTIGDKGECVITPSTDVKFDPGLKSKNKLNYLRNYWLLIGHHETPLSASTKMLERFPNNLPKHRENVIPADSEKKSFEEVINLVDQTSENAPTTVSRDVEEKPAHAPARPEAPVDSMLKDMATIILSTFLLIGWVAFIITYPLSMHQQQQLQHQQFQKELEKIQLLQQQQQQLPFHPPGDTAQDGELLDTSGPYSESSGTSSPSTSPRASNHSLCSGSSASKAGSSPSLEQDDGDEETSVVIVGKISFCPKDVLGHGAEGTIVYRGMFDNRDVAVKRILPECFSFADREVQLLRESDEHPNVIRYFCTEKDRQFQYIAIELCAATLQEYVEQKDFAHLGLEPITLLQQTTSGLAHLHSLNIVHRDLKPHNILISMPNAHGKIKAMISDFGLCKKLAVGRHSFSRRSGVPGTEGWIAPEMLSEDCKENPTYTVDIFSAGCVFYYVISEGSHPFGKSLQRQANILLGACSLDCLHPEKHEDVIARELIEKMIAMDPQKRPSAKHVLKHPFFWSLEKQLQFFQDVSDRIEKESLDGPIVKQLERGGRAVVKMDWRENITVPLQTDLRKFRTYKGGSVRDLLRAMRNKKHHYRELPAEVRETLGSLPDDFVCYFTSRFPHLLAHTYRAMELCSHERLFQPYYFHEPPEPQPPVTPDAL

| Structure (SMILES) | pIC50 (IRE1α [1]) | pEC50 (IRE1α [2]) |
| --- | --- | --- |
| CNC1CCC(Nc2ncc(C=Cc3ccc(NS(=O)(=O)c4ccccc4Cl)nc3C)cn2)CC1 (stereo not drawn) [Compound 44, 2-chloro-N-(6-methyl-5-(2-(2-(((1r,4r)-4-(methylamino)cyclohexyl)amino)pyrimidin-5-yl)vinyl)pyridin-2-yl)benzenesulfonamide] | ≥ 9.00 | 7.30 to 8.30 |
| CN(C)C1CCC(Nc2ncc(/C=C/c3ccc(NS(=O)(=O)c4ccccc4Cl)cc3)cn2)CC1 (stereo not drawn) [Compound 34, 2-chloro-N-(4-((E)-2-(2-(((1r,4r)-4-(dimethylamino)cyclohexyl)amino)pyrimidin-5-yl)vinyl)phenyl)benzenesulfonamide] | ≥ 9.00 | ≥ 8.30 |
| Cc1nc(NS(=O)(=O)c2ccccc2Cl)c(F)cc1/C=C/c1cnc(NC2CCC(N(C)C)CC2)nc1 (stereo not drawn) [Compound 22, 2-chloro-N-(5-((E)-2-(2-(((1r,4r)-4-(dimethylamino)cyclohexyl)amino)pyrimidin-5-yl)vinyl)-3-fluoro-6-methylpyridin-2-yl)benzenesulfonamide] | ≥ 9.00 | ≥ 8.30 |
| Cc1nc(NS(=O)(=O)c2ccccc2Cl)ccc1CCc1cnc(NC2CCC(O)CC2)nc1 (stereo not drawn) [Compound 20, 2-chloro-N-(5-(2-(2-(((1r,4r)-4-hydroxycyclohexyl)amino)pyrimidin-5-yl)ethyl)-6-methylpyridin-2-yl)benzenesulfonamide] | 6.00 to 7.00 | – |
| CN(C)C1CCC(Nc2ncc(C=Cc3cnc(NS(=O)(=O)c4ccccc4Cl)nc3)cn2)CC1 (stereo not drawn) [Compound 40, 2-chloro-N-(5-(2-(2-(((1r,4r)-4-(dimethylamino)cyclohexyl)amino)pyrimidin-5-yl)vinyl)pyrimidin-2-yl)benzenesulfonamide] | ≥ 9.00 | – |
| COc1cc(NS(=O)(=O)c2ccccc2Cl)cnc1CCc1cnc(NC2CCC(N)CC2)nc1 (stereo not drawn) [Compound 18, N-(6-(2-(2-(((1r,4r)-4-aminocyclohexyl)amino)pyrimidin-5-yl)ethyl)-5-methoxypyridin-3-yl)-2-chlorobenzenesulfonamide] | ≥ 9.00 | – |
| COc1nc(NS(=O)(=O)c2ccccc2Cl)ccc1CCc1cnc(NC2CCC(O)CC2)nc1 (stereo not drawn) [Compound 12, 2-chloro-N-(5-(2-(2-(((1r,4r)-4-hydroxycyclohexyl)amino)pyrimidin-5-yl)ethyl)-6-methoxypyridin-2-yl)benzenesulfonamide] | 7.30 to 8.30 | – |

Results, then the molecule that gave them:

| pIC50 (IRE1α [1]) | pEC50 (IRE1α [2]) | Structure (SMILES) |
| --- | --- | --- |
| ≥ 9.00 | 5.00 to 7.00 | Cc1nc(NS(=O)(=O)c2ccccc2Cl)ccc1/C=C/c1cnc(NC23CCC(N)(CC2)CC3)nc1 [Compound 49, (E)-N-(5-(2-(2-((4-aminobicyclo[2.2.2]octan-1-yl)amino)pyrimidin-5-yl)vinyl)-6-methylpyridin-2-yl)-2-chlorobenzenesulfonamide] |
| ≥ 9.00 | 7.30 to 8.30 | Cc1nc(NS(=O)(=O)c2ccccc2Cl)ccc1/C=C/c1cnc(NC2CCC(N)CC2)nc1 (stereo not drawn) [Compound 46, N-(5-((E)-2-(2-(((1r,4r)-4-aminocyclohexyl)amino)pyrimidin-5-yl)vinyl)-6-methylpyridin-2-yl)-2-chlorobenzenesulfonamide] |
| ≥ 9.00 | 7.30 to 8.30 | Cc1nc(NS(=O)(=O)c2ccc(F)c(F)c2Cl)ccc1/C=C/c1cnc(NC2CCC(N(C)C)CC2)nc1 (stereo not drawn) [Compound 38, 2-chloro-N-(5-((E)-2-(2-(((1r,4r)-4-(dimethylamino)cyclohexyl)amino)pyrimidin-5-yl)vinyl)-6-methylpyridin-2-yl)-3,4-difluorobenzenesulfonamide] |
| ≥ 9.00 | ≥ 8.30 | COc1nc(NS(=O)(=O)c2cccc(F)c2Cl)ccc1/C=C/c1cnc(NC2CCC(N(C)C)CC2)nc1 (single isomer, unassigned) [Compound 39, 2-chloro-N-(5-((E)-2-(2-(((1r,4r)-4-(dimethylamino)cyclohexyl)amino)pyrimidin-5-yl)vinyl)-6-methoxypyridin-2-yl)-3-fluorobenzenesulfonamide] |
